Tested on: HEK293
Experiment: Induction of VEGF in HEK293 cells by ELISA
Settings: Homo sapiens

SMILES	EC50 [nM]
O=C(NCc1ccccc1)c1ccc2cccnc2c1O	890
O=C(Nc1ccccc1)c1ccc2cccnc2c1O	630
O=C(Nc1cccnc1)c1ccc2cccnc2c1O	1900
COC(=O)c1ccc(NC(=O)c2ccc3cccnc3c2O)cc1	> 100000
N#Cc1cccc(NC(=O)c2ccc3cccnc3c2O)c1	420
Cc1cc(F)cc(NC(=O)c2ccc3cccnc3c2O)c1	890
COc1ccc(CNC(=O)c2ccc3cccnc3c2O)cc1	620
O=C(NCc1ccc(Cl)cc1)c1ccc2cccnc2c1O	3100
O=C(Nc1ccc(C(F)(F)F)cc1)c1ccc2cccnc2c1O	> 100000
N#Cc1ccc(NC(=O)c2ccc3cccnc3c2O)cc1	140
O=C(NCCc1ccccc1)c1ccc2cccnc2c1O	580
COc1cc(NC(=O)c2ccc3cccnc3c2O)cc(OC)c1	3200
N#CCNC(=O)c1ccc2cccnc2c1O	4100
O=C(O)CNC(=O)c1ccc2cccnc2c1O	> 100000

Target: Egl nine homolog 1 (Homo sapiens, UniProt Q9GZT9)
Sequence (Q9GZT9 whole entry): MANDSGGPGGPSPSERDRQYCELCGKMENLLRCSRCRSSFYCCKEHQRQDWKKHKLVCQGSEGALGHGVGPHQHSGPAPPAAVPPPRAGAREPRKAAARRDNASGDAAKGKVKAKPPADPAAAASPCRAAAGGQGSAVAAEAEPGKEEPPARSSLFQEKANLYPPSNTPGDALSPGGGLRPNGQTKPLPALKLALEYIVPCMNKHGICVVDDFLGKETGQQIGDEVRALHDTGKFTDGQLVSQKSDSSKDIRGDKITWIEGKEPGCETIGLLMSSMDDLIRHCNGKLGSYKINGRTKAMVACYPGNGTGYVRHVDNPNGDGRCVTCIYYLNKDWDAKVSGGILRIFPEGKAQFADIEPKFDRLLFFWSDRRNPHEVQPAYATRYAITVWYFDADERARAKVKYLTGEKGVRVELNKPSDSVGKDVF
Experiment: Inhibition of human EGLN1
Settings: not given

SMILES	IC50 [nM]
O=C(O)c1ccc2cccnc2c1O	> 100000
